# In PubChem BioAssay AID2060891 (Molecular Pharmacology Branch, DTP, NCI, 2025):
# System: K98450-129-R-PDC complex spheroid growth, percent test/control
# Assay: Anticancer human tumor K98450-129-R-PDC patient-derived colon adenocarcinoma cell line growth inhibition [RAS]
# Settings: for viability, T/C: stronger effect = lower value
# In short: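 Tumour cells grown as complex spheroids with HUVEC endothelial cells and mesenchymal stem cells, treated with RAS pathway inhibitor combinations. Each agent spans half-log steps from near clinical Cmax, or 10 microM where Cmax is unknown.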
# [1] = curve of first compound, second compound 0.0316 µM
# [2] = curve of first compound, second compound 0.1 µM
# [3] = curve of first compound, second compound 0.316 µM
# [4] = curve of first compound, second compound 1 µM
# [5] = curve of first compound, second compound 3.16 µM
# [6] = curve of first compound, second compound 10 µM
# [7] = second compound 0.0316 µM, first compound 0.00316 µM
# [8] = second compound 0.0316 µM, first compound 0.01 µM
# [9] = second compound 0.0316 µM, first compound 0.0316 µM
# [10] = second compound 0.0316 µM, first compound 0.1 µM
# [11] = second compound 0.1 µM, first compound 0.00316 µM
# [12] = second compound 0.1 µM, first compound 0.01 µM
# [13] = second compound 0.1 µM, first compound 0.0316 µM
# [14] = second compound 0.1 µM, first compound 0.1 µM
# [15] = second compound 0.316 µM, first compound 0.00316 µM
# [16] = second compound 0.316 µM, first compound 0.01 µM
# [17] = second compound 0.316 µM, first compound 0.0316 µM
# [18] = second compound 0.316 µM, first compound 0.1 µM
# [19] = second compound 1 µM, first compound 0.00316 µM
# [20] = second compound 1 µM, first compound 0.01 µM
# [21] = second compound 1 µM, first compound 0.0316 µM
# [22] = second compound 1 µM, first compound 0.1 µM
# [23] = second compound 3.16 µM, first compound 0.00316 µM
# [24] = second compound 3.16 µM, first compound 0.01 µM
# [25] = second compound 3.16 µM, first compound 0.0316 µM
# [26] = second compound 3.16 µM, first compound 0.1 µM
# [27] = second compound 10 µM, first compound 0.00316 µM
# [28] = second compound 10 µM, first compound 0.01 µM
# [29] = second compound 10 µM, first compound 0.0316 µM
# [30] = second compound 10 µM, first compound 0.1 µM
# 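Further: spheroids exposed to agents for seven days before the viability readout.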
# 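Wherever viability, T/C is given: luminescence used as a proxy for viable cell amount.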
compound,measurement,setting,value
Nc1ccn(C2OC(CO)C(O)C2(F)F)c(=O)n1 (stereo unspecified) + C#Cc1c(F)ccc2cc(O)cc(-c3ncc4c(N5CC6CCC(C5)N6)nc(OCC56CCCN5CC(F)C6)nc4c3F)c12,IC50,[1],72.2 nM
same,IC50,[2],87.7 nM
same,IC50,[3],83.8 nM
same,IC50,[4],74.2 nM
same,IC50,[5],90.5 nM
same,IC50,[6],87.5 nM
same,"viability, T/C",[7],109%
same,"viability, T/C",[8],99.1%
same,"viability, T/C",[9],65.4%
same,"viability, T/C",[10],44.8%
same,"viability, T/C","second compound 0.0316 µM, first compound 0.316 µM",35.6%
same,"viability, T/C","second compound 0.0316 µM, first compound 1 µM",29.6%
same,"viability, T/C",[11],115%
same,"viability, T/C",[12],106%
same,"viability, T/C",[13],73.5%
same,"viability, T/C",[14],47%
same,"viability, T/C","second compound 0.1 µM, first compound 0.316 µM",37.8%
same,"viability, T/C","second compound 0.1 µM, first compound 1 µM",29.7%
same,"viability, T/C",[15],107%
same,"viability, T/C",[16],96.3%
same,"viability, T/C",[17],75.4%
same,"viability, T/C",[18],44.4%
same,"viability, T/C","second compound 0.316 µM, first compound 0.316 µM",33.9%
same,"viability, T/C","second compound 0.316 µM, first compound 1 µM",30.5%
same,"viability, T/C",[19],101%
same,"viability, T/C",[20],94.7%
same,"viability, T/C",[21],68.1%
same,"viability, T/C",[22],43.3%
same,"viability, T/C","second compound 1 µM, first compound 0.316 µM",38%
same,"viability, T/C","second compound 1 µM, first compound 1 µM",31.9%
same,"viability, T/C",[23],95.7%
same,"viability, T/C",[24],90%
same,"viability, T/C",[25],70.2%
same,"viability, T/C",[26],46.9%
same,"viability, T/C","second compound 3.16 µM, first compound 0.316 µM",39.5%
same,"viability, T/C","second compound 3.16 µM, first compound 1 µM",31.1%
same,"viability, T/C",[27],92.5%
same,"viability, T/C",[28],87.9%
same,"viability, T/C",[29],71.6%
same,"viability, T/C",[30],46.6%
same,"viability, T/C","second compound 10 µM, first compound 0.316 µM",37.2%
same,"viability, T/C","second compound 10 µM, first compound 1 µM",32.4%
Cc1nc(N2CCC3(CC2)COC(C)C3N)c(CO)nc1Sc1ccnc(N)c1Cl (stereo unspecified),"viability, T/C",compound 0.0316 µM,96.9% [middle of 4 runs]
same,"viability, T/C",compound 0.1 µM,92.8% [middle of 4 runs]
same,"viability, T/C",compound 0.316 µM,86.5% [middle of 4 runs]
same,"viability, T/C",compound 1 µM,77.2% [middle of 4 runs]
same,"viability, T/C",compound 3.16 µM,53.1% [middle of 4 runs]
same,"viability, T/C",compound 10 µM,28.8% [middle of 4 runs]
same,IC50,curve of compound,3.66 µM [middle of 4 runs]
CC(C)n1nc(-c2ccc3oc(N)nc3c2)c2c(N)ncnc21 + C#Cc1c(F)ccc2cc(O)cc(-c3ncc4c(N5CC6CCC(C5)N6)nc(OCC56CCCN5CC(F)C6)nc4c3F)c12,IC50,[1],> 100 nM
same,IC50,[2],> 100 nM
same,IC50,[3],> 100 nM
same,IC50,[4],> 100 nM
same,IC50,[5],> 100 nM
same,IC50,[6],> 100 nM
same,"viability, T/C","second compound 0.0316 µM, first compound 0.000316 µM",110%
same,"viability, T/C","second compound 0.0316 µM, first compound 0.001 µM",104%
same,"viability, T/C",[7],101%
same,"viability, T/C",[8],98.4%
same,"viability, T/C",[9],86.5%
same,"viability, T/C",[10],78.3%
same,"viability, T/C","second compound 0.1 µM, first compound 0.000316 µM",114%
same,"viability, T/C","second compound 0.1 µM, first compound 0.001 µM",103%
same,"viability, T/C",[11],102%
same,"viability, T/C",[12],95.9%
same,"viability, T/C",[13],89.2%
same,"viability, T/C",[14],74.4%
same,"viability, T/C","second compound 0.316 µM, first compound 0.000316 µM",109%
same,"viability, T/C","second compound 0.316 µM, first compound 0.001 µM",105%
same,"viability, T/C",[15],104%
same,"viability, T/C",[16],98.8%
same,"viability, T/C",[17],93.1%
same,"viability, T/C",[18],71.9%
same,"viability, T/C","second compound 1 µM, first compound 0.000316 µM",106%
same,"viability, T/C","second compound 1 µM, first compound 0.001 µM",107%
same,"viability, T/C",[19],95.1%
same,"viability, T/C",[20],93.8%
same,"viability, T/C",[21],82.9%
same,"viability, T/C",[22],74.7%
same,"viability, T/C","second compound 3.16 µM, first compound 0.000316 µM",95.6%
same,"viability, T/C","second compound 3.16 µM, first compound 0.001 µM",94.8%
same,"viability, T/C",[23],92%
same,"viability, T/C",[24],84.4%
same,"viability, T/C",[25],80.1%
same,"viability, T/C",[26],66.7%
same,"viability, T/C","second compound 10 µM, first compound 0.000316 µM",84.9%
same,"viability, T/C","second compound 10 µM, first compound 0.001 µM",82.9%
same,"viability, T/C",[27],87.4%
same,"viability, T/C",[28],77%
same,"viability, T/C",[29],69.6%
same,"viability, T/C",[30],62.2%
